Assay results reported in US20100105655A1, “NOVEL COMPOUNDS 515” (ASTRAZENECA AB, priority 2008, published 2010).

Biological target: T1, IGFR kinase (Homo sapiens, UniProt P08069)
T1 construct: purchased Millipore
Assay: Enzyme assay (c), IGFR kinase, Caliper LabChip
Assay type: biochemical
Conditions: 30 nM IGFR kinase, 6 uM ATP, 3 uM peptide mix; read-out: IGFR IC50
Description: For Echo dosing the solvent was 100% DMSO. A master plate was prepared with 40 ul of 10 mM stock solution of the test compound in DMSO in quadrant 1 of a Labcyte 384 well plate. A 1 in 100 dilution was made from quadrant 1 into quadrant 2 by removing 0.4 ul and adding it to 39.6 ul of DMSO. Subsequent 1 in 100 dilutions were made into quadrant 3 from quadrant 2 and quadrant 4 from quadrant 3.
Multiple 2.5 nl droplets were dispensed from each quadrant of the master plate to generate the dose range that was required in the test. The dose range most commonly used was as follows: 100 uM, 30 uM, 10 uM, 3 uM, 1 uM, 0.3 uM, 0.1 uM, 0.03 uM, 0.01 uM, 0.003 uM, 0.001 uM, 0.0001 uM. Each well was backfilled with dimethyl sulfoxide (DMSO) to a total volume of 120 nl, such that when the enzyme and substrate mix was added the final DMSO concentration was 1%.
DMSO was added to max control wells as 120 nl, minimum control wells were treated with 120 nl of compound at a concentration that inhibited the enzyme activity 100%.
Integration of the substrate and product peaks was carried out using Caliper LabChip software and IC50 curves were calculated using Origin™ software.

T1 sequence (P08069 31-1367): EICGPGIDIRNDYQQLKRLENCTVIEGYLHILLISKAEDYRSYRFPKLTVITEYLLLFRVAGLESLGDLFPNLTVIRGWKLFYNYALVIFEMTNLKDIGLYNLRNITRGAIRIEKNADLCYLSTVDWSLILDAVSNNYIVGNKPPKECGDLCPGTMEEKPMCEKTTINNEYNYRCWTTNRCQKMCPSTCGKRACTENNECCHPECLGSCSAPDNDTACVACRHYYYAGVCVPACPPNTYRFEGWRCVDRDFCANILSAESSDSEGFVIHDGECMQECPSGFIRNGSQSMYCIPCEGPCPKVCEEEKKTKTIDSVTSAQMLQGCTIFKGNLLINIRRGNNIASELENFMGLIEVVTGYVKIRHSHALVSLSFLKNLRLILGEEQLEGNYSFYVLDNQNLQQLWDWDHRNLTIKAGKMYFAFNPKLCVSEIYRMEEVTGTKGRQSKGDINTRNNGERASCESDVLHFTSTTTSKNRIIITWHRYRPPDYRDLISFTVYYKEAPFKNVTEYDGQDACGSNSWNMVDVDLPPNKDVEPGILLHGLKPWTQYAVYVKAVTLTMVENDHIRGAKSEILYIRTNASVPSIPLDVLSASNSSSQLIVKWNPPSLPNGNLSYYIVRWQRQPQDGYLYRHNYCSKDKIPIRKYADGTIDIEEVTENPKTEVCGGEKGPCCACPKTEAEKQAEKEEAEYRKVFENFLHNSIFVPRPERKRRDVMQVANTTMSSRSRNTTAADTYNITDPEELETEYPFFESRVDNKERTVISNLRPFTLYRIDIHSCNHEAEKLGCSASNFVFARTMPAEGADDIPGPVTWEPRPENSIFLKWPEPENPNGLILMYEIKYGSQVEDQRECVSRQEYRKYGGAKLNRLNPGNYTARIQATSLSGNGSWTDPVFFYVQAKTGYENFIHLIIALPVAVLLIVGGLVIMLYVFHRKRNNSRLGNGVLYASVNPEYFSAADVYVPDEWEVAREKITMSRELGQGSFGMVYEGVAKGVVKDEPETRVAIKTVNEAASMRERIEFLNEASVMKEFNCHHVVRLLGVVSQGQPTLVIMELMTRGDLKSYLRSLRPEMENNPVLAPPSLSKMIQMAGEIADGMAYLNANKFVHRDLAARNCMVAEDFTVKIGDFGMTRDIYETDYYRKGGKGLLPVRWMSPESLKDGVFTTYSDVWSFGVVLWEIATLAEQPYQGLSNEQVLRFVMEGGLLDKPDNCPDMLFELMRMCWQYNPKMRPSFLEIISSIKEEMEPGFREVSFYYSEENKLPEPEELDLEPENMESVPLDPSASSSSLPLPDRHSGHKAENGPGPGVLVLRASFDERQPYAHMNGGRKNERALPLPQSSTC

IC50 [nM] | Structure (SMILES)
5 | COc1cc(N2CCN(C(=O)[C@@H](N)CO)CC2)ccc1Nc1ncc(Cl)c(-c2cnc3ccccn23)n1 [Example 24.7, (2S)-2-amino-1-[4-[4-[(5-chloro-4-imidazo[1,2-a]pyridin-3-yl-pyrimidin-2-yl)amino]-3-methoxy-phenyl]piperazin-1-yl]-3-hydroxy-propan-1-one]
23 | COc1cc(CN[C@@H](C)CO)ccc1Nc1ncc(Cl)c(-c2cnc3ccccn23)n1 [Example 21.19, (2S)-2-[[4-[(5-chloro-4-imidazo[1,2-a]pyridin-3-yl-pyrimidin-2-yl)amino]-3-methoxy-phenyl]methylamino]propan-1-ol]
18 | COc1cc(CN2CCC2)ccc1Nc1ncc(Cl)c(-c2cnc3ccccn23)n1 [Example 21.10, N-[4-(azetidin-1-ylmethyl)-2-methoxy-phenyl]-5-chloro-4-imidazo[1,2-a]pyridin-3-yl-pyrimidin-2-amine]
22 | CC(=O)N1CCN(c2ccc(Nc3ncc(Cl)c(-c4cnc5ccccn45)n3)c(OC(C)C)c2)CC1 [Example 3.34, 1-[4-[4-[(5-chloro-4-imidazo[1,2-a]pyridin-3-yl-pyrimidin-2-yl)amino]-3-isopropoxy-phenyl]piperazin-1-yl]ethanone]
31 | COc1cc(C(C)C(=O)N2CCOCC2)ccc1Nc1ncc(Cl)c(-c2cnc3ccccn23)n1 (centres unmarked) [Example 3.39, 2-[4-[(5-chloro-4-imidazo[1,2-a]pyridin-3-yl-pyrimidin-2-yl)amino]-3-methoxy-phenyl]-1-morpholino-propan-1-one]
60 | COc1cc(N2CCS(=O)(=O)CC2)ccc1Nc1ncc(Cl)c(-c2cnc3ccccn23)n1 [Example 3.15, 5-chloro-N-[4-(1,1-dioxo-1,4-thiazinan-4-yl)-2-methoxy-phenyl]-4-imidazo[1,2-a]pyridin-3-yl-pyrimidin-2-amine]
41 | COc1ccc(N2CC[C@@H](O)C2)cc1Nc1ncc(Cl)c(-c2cnc3ccccn23)n1 [Example 3.18, (3R)-1-[3-[(5-chloro-4-imidazo[1,2-a]pyridin-3-yl-pyrimidin-2-yl)amino]-4-methoxy-phenyl]pyrrolidin-3-ol]
5 | COc1cc(N2CCN(C(=O)C3CCCN3)CC2)ccc1Nc1ncc(Cl)c(-c2cnc3ccccn23)n1 (centres unmarked) [Example 24.3, [4-[4-[(5-chloro-4-imidazo[1,2-a]pyridin-3-ylpyrimidin-2-yl)amino]-3-methoxyphenyl]piperazin-1-yl]-pyrrolidin-2-yl methanone]

The remaining lines, values behind:

Structure (SMILES) | IC50 [nM]
COc1cc(N2CCC(O)CC2)ccc1Nc1ncc(F)c(-c2cnc3ccccn23)n1 [Example 111, 1-[4-[(5-fluoro-4-imidazo[1,2-a]pyridin-3-yl-pyrimidin-2-yl)amino]-3-methoxy-phenyl]piperidin-4-ol] | 49
CNCC(=O)N1CC2CN(c3ccc(Nc4ncc(Cl)c(-c5cnc6c(F)cccn56)n4)c(OC)c3)CC(C1)O2 [Example 208, 1-[3-[4-[[5-chloro-4-(8-fluoroimidazo[1,2-a]pyridin-3-yl)pyrimidin-2-yl]amino]-3-methoxy-phenyl]-9-oxa-3,7-diazabicyclo[3.3.1]nonan-7-yl]-2-(methylamino)ethanone] | 26
COc1cc(N2CCN(C(=O)[C@@H](C)O)CC2)ccc1Nc1ncc(Cl)c(-c2cnc3cc(C)ccn23)n1 [Example 257, (2R)-1-[4-[4-[[5-chloro-4-(7-methylimidazo[1,2-a]pyridin-3-yl)pyrimidin-2-yl]amino]-3-methoxy-phenyl]piperazin-1-yl]-2-hydroxy-propan-1-one] | 10
COc1cc(N2CCN(C[C@@H](C)O)CC2)ccc1Nc1ncc(Cl)c(-c2cnc3ccccn23)n1 [Example 51, (2R)-1-[4-[4-[(5-chloro-4-imidazo[1,2-a]pyridin-3-yl-pyrimidin-2-yl)amino]-3-methoxy-phenyl]piperazin-1-yl]propan-2-ol] | 8
COc1ccc(N2CCC(OC)CC2)cc1Nc1ncc(F)c(-c2cnc3ccccn23)n1 [Example 77, 5-fluoro-4-imidazo[1,2-a]pyridin-3-yl-N-[2-methoxy-5-(4-methoxy-1-piperidyl)phenyl]pyrimidin-2-amine] | 184
COc1cc(N2CCN(C(C)(C)CO)CC2)ccc1Nc1ncc(C)c(-c2cnc3ccc(F)cn23)n1 [Example 260, 2-[4-[4-[[4-(6-fluoroimidazo[1,2-a]pyridin-3-yl)-5-methyl-pyrimidin-2-yl]amino]-3-methoxy-phenyl]piperazin-1-yl]-2-methyl-propan-1-ol] | 11
COc1cc(N2CC3CN(C)CC(C2)O3)ccc1Nc1ncc(Cl)c(-c2cnc3c(F)cccn23)n1 [Example 203, 5-chloro-4-(8-fluoroimidazo[1,2-a]pyridin-3-yl)-N-[2-methoxy-4-(7-methyl-9-oxa-3,7-diazabicyclo[3.3.1]nonan-3-yl)phenyl]pyrimidin-2-amine] | 9
COc1cc(N2CC3CN(CCS(C)(=O)=O)CC(C2)O3)ccc1Nc1ncc(Cl)c(-c2cnc3c(F)cccn23)n1 [Example 207, 5-chloro-4-(8-fluoroimidazo[1,2-a]pyridin-3-yl)-N-[2-methoxy-4-[3-(2-methylsulfonylethyl)-9-oxa-3,7-diazabicyclo[3.3.1]nonan-7-yl]phenyl]pyrimidin-2-amine] | 19
COc1cc(N2CCN(C(=O)[C@@H]3CCCN3)CC2)ccc1Nc1ncc(Cl)c(-c2cnc3ccccn23)n1 [Example 23, [4-[4-[(5-chloro-4-imidazo[1,2-a]pyridin-3-yl-pyrimidin-2-yl)amino]-3-methoxy-phenyl]piperazin-1-yl]-[(2S)-pyrrolidin-2-yl]methanone] | 9
COc1cc(N2CCN(C(C)(C)CO)CC2)ccc1Nc1ncc(C)c(-c2cnc3cc(C)ccn23)n1 [Example 262, 2-[4-[3-methoxy-4-[[5-methyl-4-(7-methylimidazo[1,2-a]pyridin-3-yl)pyrimidin-2-yl]amino]phenyl]piperazin-1-yl]-2-methyl-propan-1-ol] | 39
COc1cc(N2CCN(C(=O)[C@@H](C)O)CC2)ccc1Nc1ncc(Cl)c(-c2cnc3c(F)cc(F)cn23)n1 [Example 256, (2R)-1-[4-[4-[[5-chloro-4-(6,8-difluoroimidazo[1,2-a]pyridin-3-yl)pyrimidin-2-yl]amino]-3-methoxy-phenyl]piperazin-1-yl]-2-hydroxy-propan-1-one] | 5
COc1cc(N2CCN(S(=O)(=O)N(C)C)CC2)ccc1Nc1ncc(F)c(-c2cnc3ccccn23)n1 [Example 74, 4-[4-[(5-fluoro-4-imidazo[1,2-a]pyridin-3-yl-pyrimidin-2-yl)amino]-3-methoxy-phenyl]-N,N-dimethyl-piperazine-1-sulfonamide] | 42
COc1cc(C2CCN(C(C)=O)CC2)ccc1Nc1ncc(Cl)c(-c2cnc3c(F)cccn23)n1 [Example 177, 1-[4-[4-[[5-chloro-4-(8-fluoroimidazo[1,2-a]pyridin-3-yl)pyrimidin-2-yl]amino]-3-methoxy-phenyl]-1-piperidyl]ethanone] | 5
COc1cc(N2CCN(C(C)CO)CC2)ccc1Nc1ncc(C)c(-c2cnc3ccccn23)n1 (centres unmarked) [Example 274, 2-[4-[4-[(4-imidazo[1,2-a]pyridin-3-yl-5-methyl-pyrimidin-2-yl)amino]-3-methoxy-phenyl]piperazin-1-yl]propan-1-ol] | 14
COc1cc(N2CC[C@@H](O)C2)ccc1Nc1ncc(F)c(-c2cnc3ccccn23)n1 [Example 85, (3R)-1-[4-[(5-fluoro-4-imidazo[1,2-a]pyridin-3-yl-pyrimidin-2-yl)amino]-3-methoxy-phenyl]pyrrolidin-3-ol] | 34
COc1cc(N2CCN(CCO)CC2)ccc1Nc1ncc(Cl)c(-c2cnc3c(F)cccn23)n1 [Example 194, 2-[4-[4-[[5-chloro-4-(8-fluoroimidazo[1,2-a]pyridin-3-yl)pyrimidin-2-yl]amino]-3-methoxy-phenyl]piperazin-1-yl]ethanol] | 15
COc1cc(C(CO)CO)ccc1Nc1ncc(Cl)c(-c2cnc3c(F)cccn23)n1 [Example 181, 2-[4-[[5-chloro-4-(8-fluoroimidazo[1,2-a]pyridin-3-yl)pyrimidin-2-yl]amino]-3-methoxy-phenyl]propane-1,3-diol] | 21
COc1cc(CC(=O)N2CCN(CCO)CC2)ccc1Nc1ncc(Cl)c(-c2cnc3ccccn23)n1 [Example 37, 2-[4-[(5-chloro-4-imidazo[1,2-a]pyridin-3-yl-pyrimidin-2-yl)amino]-3-methoxy-phenyl]-1-[4-(2-hydroxyethyl)piperazin-1-yl]ethanone] | 31
COc1cc(C2CCN(C(C)=O)CC2)ccc1Nc1ncc(OC)c(-c2cnc3ccccn23)n1 [Example 94, 1-[4-[4-[(4-imidazo[1,2-a]pyridin-3-yl-5-methoxy-pyrimidin-2-yl)amino]-3-methoxy-phenyl]-1-piperidyl]ethanone] | 136
COc1cc(C2CCN(C(=O)[C@@H](C)O)CC2)ccc1Nc1ncc(Cl)c(-c2cnn3ccccc23)n1 [Example 138, (2R)-1-[4-[4-[(5-chloro-4-pyrazolo[1,5-a]pyridin-3-yl-pyrimidin-2-yl)amino]-3-methoxy-phenyl]-1-piperidyl]-2-hydroxy-propan-1-one] | 3
COc1cc(N2CCN(CCO)[C@H](C)C2)ccc1Nc1ncc(F)c(-c2cnc3ccccn23)n1 [Example 272, 2-[(2R)-4-[4-[(5-fluoro-4-imidazo[1,2-a]pyridin-3-yl-pyrimidin-2-yl)amino]-3-methoxy-phenyl]-2-methyl-piperazin-1-yl]ethanol] | 270
